In PubChem BioAssay (NCI):
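A five-concentration, 48-hour dose response in 96-well plates underlies each endpoint, interpolated linearly between surrounding concentrations. GI50 marks 50% less growth. At the TGI there is no net growth.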

Assays:
Test in all cases: NCI anticancer screen, dose series, 48 h
RXF 393 renal = test system: RXF 393 renal
SW-620 colon = test system: SW-620 colon
A498 renal = test system: A498 renal
SK-MEL-2 melanoma = test system: SK-MEL-2 melanoma
SNB-75 CNS = test system: SNB-75 CNS
SK-MEL-28 melanoma = test system: SK-MEL-28 melanoma
CCRF-CEM leukemia = test system: CCRF-CEM leukemia
IGROV1 ovarian = test system: IGROV1 ovarian
PC-3 prostate = test system: PC-3 prostate
MDA-MB-231 breast = test system: MDA-MB-231 breast

Row | Compound | TGI (RXF 393 renal) [µM] | TGI (SW-620 colon) [µM] | TGI (A498 renal) [µM] | TGI (SK-MEL-2 melanoma) [µM] | TGI (SNB-75 CNS) [µM] | TGI (SK-MEL-28 melanoma) [µM] | TGI (CCRF-CEM leukemia) [µM] | TGI (IGROV1 ovarian) [µM] | GI50 (RXF 393 renal) [µM] | GI50 (SW-620 colon) [µM] | GI50 (A498 renal) [nM] | GI50 (PC-3 prostate) [nM] | TGI (PC-3 prostate) [µM] | GI50 (SNB-75 CNS) [nM] | GI50 (CCRF-CEM leukemia) [nM] | GI50 (SK-MEL-28 melanoma) [µM] | GI50 (MDA-MB-231 breast) [nM] | TGI (MDA-MB-231 breast) [µM] | GI50 (SK-MEL-2 melanoma) [nM]
1 | CC(=O)ON(C(C)=O)C1C(COC(c2ccccc2)(c2ccccc2)c2ccccc2)OC2OC3(CCCC3)OC21 (stereo not drawn) | 60.4 | > 100 | > 100 | > 100 | > 100 | > 100 | > 100 | > 100 |  |  |  |  |  |  |  |  |  |  | 
2 | CC(=O)C1CCC2C3CC=C4CC(SC(=N)N)CCC4(C)C3CCC12C (stereo not drawn) | 3.63 | 3.16 | 3.73 |  | 4.15 |  | 4.26 |  | 1.66 | 1.62 | 1190 | 1550 | 4.2 | 1580 | 1790 |  |  |  | 
3 | Cn1nc(-c2ccccc2)c(C(=O)/C=C/c2ccc(F)cc2)c(N2CCOCC2)c1=O | 27.8 | 47.1 | 32 |  |  | 31.5 | 49.2 | 39.3 |  |  |  |  |  |  |  |  |  |  | 
4 | OC1CCC[C@@H]1Sc1ccccc1 (stereo partly drawn) | > 100 | > 100 | > 100 | > 100 | > 100 | > 100 | > 100 |  |  |  |  |  |  |  |  |  |  |  | 
5 | N#Cc1cc(NC(=O)c2ccccc2)c(=O)n2c1[nH]c1ccccc12 | 50.7 | > 100 | 85.8 | 89.8 | 68.3 | 67.7 | > 100 | > 100 |  |  |  |  |  |  |  |  |  |  | 
6 | O=C1C2ON3c4ccccc4C(=O)C3(c3ccccc3)C2C(=O)N1c1ccccc1 (stereo not drawn) | > 100 | > 100 | > 100 |  | > 100 | > 100 | > 100 | > 100 |  |  |  |  |  |  |  |  |  |  | 
7 | COC(=O)C1=C(O)[C@H](C(=O)OC)[C@]2(O)[C@@H](C(=O)OC)[C@H]1C[C@@H](c1ccc(OC(=O)/C=C/c3ccco3)cc1)[C@@H]2C(=O)OC | > 100 | > 100 |  |  |  | > 100 |  |  | 41.6 | 36.3 |  | 21500 | 88.3 |  |  | 29.1 |  |  | 
8 | NNC(=O)N/N=C1\C(=O)N(c2nccs2)C(=O)C(=O)C1c1nc2ccccc2s1 (stereo not drawn) | > 100 | > 100 |  | > 100 | > 100 | > 100 |  | > 100 |  |  |  |  |  |  |  |  |  |  | 
9 | CCc1nc2cc(/C=C/C(=O)NO)ccc2c(=O)n1CCc1ccc(F)cc1 |  |  | 2.77 | 6.59 |  | 4.15 | > 100 |  |  |  | 1100 | 2920 | > 100 |  | 1390 | 1.85 | 1320 | 4.67 | 2900
10 | CC(=O)O[C@H]1C(=O)[C@@]2(C)[C@H]([C@H](OC(=O)c3ccccc3)[C@@]3(O)C[C@H](O)C(C)=C1C3(C)C)[C@]1(OC(C)=O)CO[C@@H]1C[C@@H]2O | > 100 | > 100 |  | > 100 | > 100 | > 100 | > 100 | > 100 |  |  |  |  | > 100 |  |  |  |  | > 100 | 
11 | C#CCN(N=O)C(=O)NCCCC(NC(C)=O)C(=O)NCc1ccccc1 (stereo not drawn) | > 100 | > 100 | > 100 |  | > 100 | > 100 | 70.3 | > 100 |  |  |  |  |  |  |  |  |  |  | 
12 | C=C1C(=O)OC2C1C(OC(=O)/C(C)=C\C)CC1(CO1)C1C(O)C=C(C)C21O (stereo not drawn) | 7.09 | 3.34 | 17.7 | 12.5 | 29.2 | 13.2 | > 100 | 29.7 |  |  |  |  |  |  |  |  |  |  | 
